Assay results taken from patent US9714234B2, “Carbazole carboxamide compounds” (Bristol-Myers Squibb Company, priority 2013, dated 2017).

Tests used:
[1] = target: Jak2 tyrosine kinase (Homo sapiens (Human), UniProt O60674); experiment: Jak2 Tyrosine Kinase Assay; format: biochemical; conditions: for IC50: Jak2 1 nM, ATP 30 μM; for Ratio of Jak2/Btk IC50 values: selectivity for Btk over Jak2, larger value = more selective for Btk
[2] = target: human recombinant Btk (Homo sapiens (Human), UniProt Q06187); experiment: Human Recombinant Btk Enzyme Assay; format: biochemical; conditions: human recombinant Btk 1 nM, ATP 20 μM
[3] = test system: CD69 expression on B cells in human whole blood; experiment: Whole Blood Assays of BCR-Stimulated CD69 Expression on B Cells; format: cell-based; conditions: anti-human IgM + IL-4 stimulation, 18 h at 37° C.

Chain of Jak2 tyrosine kinase (O60674 whole entry): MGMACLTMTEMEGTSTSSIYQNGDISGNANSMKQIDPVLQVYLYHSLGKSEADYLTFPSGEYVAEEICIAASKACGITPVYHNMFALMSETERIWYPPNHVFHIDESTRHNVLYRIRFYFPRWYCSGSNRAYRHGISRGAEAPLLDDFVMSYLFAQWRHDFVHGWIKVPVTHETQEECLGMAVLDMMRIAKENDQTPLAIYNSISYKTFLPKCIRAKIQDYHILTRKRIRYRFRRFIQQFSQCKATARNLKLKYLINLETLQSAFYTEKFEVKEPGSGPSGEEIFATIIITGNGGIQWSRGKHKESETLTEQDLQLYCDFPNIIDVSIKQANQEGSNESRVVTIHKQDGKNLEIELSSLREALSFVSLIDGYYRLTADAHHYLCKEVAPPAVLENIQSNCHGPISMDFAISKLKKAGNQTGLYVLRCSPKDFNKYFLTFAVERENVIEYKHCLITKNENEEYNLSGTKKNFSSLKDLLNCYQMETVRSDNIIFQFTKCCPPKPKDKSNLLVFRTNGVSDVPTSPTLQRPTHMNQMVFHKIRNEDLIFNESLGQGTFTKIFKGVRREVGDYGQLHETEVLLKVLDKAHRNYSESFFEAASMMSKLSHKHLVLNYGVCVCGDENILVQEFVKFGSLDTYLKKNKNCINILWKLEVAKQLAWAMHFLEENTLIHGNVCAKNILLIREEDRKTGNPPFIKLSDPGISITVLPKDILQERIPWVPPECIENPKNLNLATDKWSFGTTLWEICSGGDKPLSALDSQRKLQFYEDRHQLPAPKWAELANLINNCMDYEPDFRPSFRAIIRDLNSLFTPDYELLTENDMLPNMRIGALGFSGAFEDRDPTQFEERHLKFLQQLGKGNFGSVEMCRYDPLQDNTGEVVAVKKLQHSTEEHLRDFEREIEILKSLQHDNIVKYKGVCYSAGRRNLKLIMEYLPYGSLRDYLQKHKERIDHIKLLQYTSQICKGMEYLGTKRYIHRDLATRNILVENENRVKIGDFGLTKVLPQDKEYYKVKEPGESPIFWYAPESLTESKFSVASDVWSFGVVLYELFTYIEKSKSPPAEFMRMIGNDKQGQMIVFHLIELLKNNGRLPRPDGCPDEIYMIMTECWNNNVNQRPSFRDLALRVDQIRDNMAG
Chain of human recombinant Btk (Q06187 whole entry): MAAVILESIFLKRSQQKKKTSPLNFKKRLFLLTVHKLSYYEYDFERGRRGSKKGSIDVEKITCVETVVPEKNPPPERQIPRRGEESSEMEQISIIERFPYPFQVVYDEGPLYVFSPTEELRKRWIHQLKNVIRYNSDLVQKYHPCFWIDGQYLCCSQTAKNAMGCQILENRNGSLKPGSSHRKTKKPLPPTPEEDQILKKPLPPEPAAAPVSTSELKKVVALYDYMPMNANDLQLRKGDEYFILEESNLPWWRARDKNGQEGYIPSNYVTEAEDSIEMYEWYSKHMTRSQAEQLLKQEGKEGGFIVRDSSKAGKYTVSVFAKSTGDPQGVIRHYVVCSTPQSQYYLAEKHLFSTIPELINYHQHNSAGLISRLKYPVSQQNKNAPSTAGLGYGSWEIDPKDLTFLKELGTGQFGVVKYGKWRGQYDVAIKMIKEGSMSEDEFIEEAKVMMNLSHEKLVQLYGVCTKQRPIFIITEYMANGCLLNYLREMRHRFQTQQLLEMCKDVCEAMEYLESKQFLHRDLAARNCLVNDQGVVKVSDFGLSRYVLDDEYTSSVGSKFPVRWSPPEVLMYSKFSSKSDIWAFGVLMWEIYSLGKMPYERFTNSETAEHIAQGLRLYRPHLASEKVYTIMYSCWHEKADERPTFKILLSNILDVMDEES

| SMILES | IC50 [1] [nM] | Ratio of Jak2/Btk IC50 values [1] | IC50 [2] [nM] | IC50 ([3]; B-cell) [nM] | IC50 ([3]; Homo sapiens, B-cell, 18 h) [nM] | IC50 [3] [nM] |
| --- | --- | --- | --- | --- | --- | --- |
| Cc1c(-c2ccc(C(N)=O)c3[nH]c4cc(C(C)(C)O)ccc4c23)cccc1-n1c(=O)c2cc(F)ccc2n(C)c1=O [Example 8, 4-(3-(6-Fluoro-1-methyl-2,4-dioxo-1,2-dihydroquinazolin-3(4H)-yl)-2-methylphenyl)-7-(2-hydroxypropan-2-yl)-9H-carbazole-1-carboxamide] | 2200 | 380 | 5.8 | 160 |  |  |
| Cc1c(-c2ccc(C(N)=O)c3[nH]c4cc(C(C)(C)O)ccc4c23)cccc1-n1c(=O)[nH]c2c(F)cccc2c1=O (single isomer, unassigned) [Example 1, 4-(3-(8-Fluoro-2,4-dioxo-1,2-dihydroquinazolin-3(4H)-yl)-2-methylphenyl)-7-(2-hydroxypropan-2-yl)-9H-carbazole-1-carboxamide] | 1200 | 800 | 1.5 |  | 140 |  |
| Cc1c(-c2ccc(C(N)=O)c3[nH]c4cc(C(C)(C)O)ccc4c23)cccc1-n1c(=O)ccn(-c2ccc(F)cc2)c1=O [Example 9, 4-(3-(3-(4-Fluorophenyl)-2,6-dioxo-2,3-dihydropyrimidin-1(6H)-yl)-2-methylphenyl)-7-(2-hydroxypropan-2-yl)-9H-carbazole-1-carboxamide] | 1000 | 450 | 2.2 | 210 |  |  |
| Cc1c(-c2ccc(C(N)=O)c3[nH]c4cc(C(C)(C)O)ccc4c23)cccc1-n1c(=O)cc2c(Cl)cccn2c1=O (atropisomer, axis not shown) [Example 15, 4-(3-(S)-(5-Chloro-1,3-dioxo-1H-pyrido[1,2-c]pyrimidin-2(3H)-yl)-2-methylphenyl)-7-(2-hydroxypropan-2-yl)-9H-carbazole-1-carboxamide] | 1000 | 2400 | 0.41 |  |  | 59 |
| COCc1ccc2c(c1)[nH]c1c(C(N)=O)ccc(-c3cccc(-n4c(=O)cc5c(Cl)cccn5c4=O)c3C)c12 [Example 17, 4-(3-(5-Chloro-1,3-dioxo-1H-pyrido[1,2-c]pyrimidin-2(3H)-yl)-2-methylphenyl)-7-(methoxymethyl)-9H-carbazole-1-carboxamide] | 1900 | 1100 | 1.7 | 110 |  |  |

Further compounds by falling IC50 [1], results first:

| IC50 [1] [nM] | Ratio of Jak2/Btk IC50 values [1] | IC50 [2] [nM] | IC50 ([3]; B-cell) [nM] | IC50 ([3]; Homo sapiens, B-cell, 18 h) [nM] | IC50 [3] [nM] | SMILES |
| --- | --- | --- | --- | --- | --- | --- |
| 980 | 1900 | 0.52 | 140 |  |  | COc1cccn2c(=O)n(-c3cccc(-c4ccc(C(N)=O)c5[nH]c6cc(C(C)(C)O)ccc6c45)c3C)c(=O)cc12 [Example 12, 7-(2-Hydroxypropan-2-yl)-4-(3-(5-methoxy-1,3-dioxo-1H-pyrido[1,2-c]pyrimidin-2(3H)-yl)-2-methylphenyl)-9H-carbazole-1-carboxamide] |
| 960 | 1000 | 0.93 |  | 75 |  | Cc1c(-c2ccc(C(N)=O)c3[nH]c4cc(C(C)(C)O)ccc4c23)cccc1-n1c(=O)cc2c(F)cccn2c1=O [Example 21, 4-(3-(5-Fluoro-1,3-dioxo-1H-pyrido[1,2-c]pyrimidin-2(3H)-yl)-2-methylphenyl)-7-(2-hydroxypropan-2-yl)-9H-carbazole-1-carboxamide] |
| 880 | 520 | 1.7 |  |  | 91 | Cc1c(-c2ccc(C(N)=O)c3[nH]c4cc(C(C)(C)O)ccc4c23)cccc1-n1c(=O)cc2c(F)cccn2c1=O [Example 22, 4-(3-(5-Fluoro-1,3-dioxo-1H-pyrido[1,2-c]pyrimidin-2(3H)-yl)-2-methylphenyl)-7-(2-hydroxypropan-2-yl)-9H-carbazole-1-carboxamide] |
| 740 | 320 | 2.3 | 130 |  |  | COCc1ccc2c(c1)[nH]c1c(C(N)=O)ccc(-c3cccc(-n4c(=O)cc5c(F)cccn5c4=O)c3C)c12 [Example 18, 4-(3-(5-Fluoro-1,3-dioxo-1H-pyrido[1,2-c]pyrimidin-2(3H)-yl)-2-methylphenyl)-7-(methoxymethyl)-9H-carbazole-1-carboxamide] |
| 226 | 540 | 0.4 | 250 |  |  | Cc1c(-c2ccc(C(N)=O)c3[nH]c4c(F)c(C(C)(C)O)ccc4c23)cccc1-n1c(=O)c2cccc(F)c2n(C)c1=O [Example 33, 8-fluoro-4-(3-(8-fluoro-1-methyl-2,4-dioxo-1,2-dihydroquinazolin-3(4H)-yl)-2-methylphenyl)-7-(2-hydroxypropan-2-yl)-9H-carbazole-1-carboxamide] |
